We go through two molecules from paper PMC5775429, “LY2087101 and dFBr share transmembrane binding sites in the (α4)3(β2)2 Nicotinic Acetylcholine Receptor” (Scientific Reports, 2018).

The subject of assay [1] is non-induced compulsive-like mouse model. Also noted: method as in PMID 23712602, PMID 28446611, PMID 28809075, PMID 28105008. The conditions noted are these: cited from earlier work.
For the next assay, the target named is T1, (α4)3(β2)2 nAChR (Homo sapiens, UniProt P17787+P43681).
T1 construct: expressed in transfected cells; host or cells: Xenopus laevis oocytes injected with cRNA
Conditions: cited from earlier work.

Another assay deals with (α4H94N)3(β2)2 nAChR (Homo sapiens, UniProt P43681, H94N). The arrangement: method as in PMID 28446611. The conditions noted are these: 10 µM ACh + 1 µM dFBr vs 10 µM ACh alone; data reported previously ref 29; cited from earlier work.
Assay [2] has as its target T2, (α4H142L)3(β2)2 nAChR (Homo sapiens, UniProt P43681, H142L). The arrangement: method as in PMID 28446611. The conditions noted are these: 10 µM ACh + 1 µM dFBr vs 10 µM ACh alone; data reported previously ref 29; cited from earlier work.
The target of assay [3] is T3, (α4L63I)3(β2)2 nAChR (Homo sapiens, UniProt P43681, L63I). Also noted: method as in PMID 28446611. The conditions noted are these: 10 µM ACh + 1 µM dFBr vs 10 µM ACh alone; data reported previously ref 29; cited from earlier work.
For another assay, the target named is T4, α3β4 nAChR (Homo sapiens, UniProt P30926+P32297).
T4 construct: expressed in transfected cells; host or cells: Xenopus laevis oocytes injected with cRNA
In words: Two-electrode voltage-clamp of ACh-induced currents in Xenopus oocytes. Conditions: 1 μM PAM. The format is cell-based. The procedure:
Next, Xenopus oocytes were injected with RNA mixes of […], α3:β4, […], or α4:β4 at ratios of 8:1, 1:1, or 1:8 to express nAChRs with different subunit composition and with various α:β ratios.
(§1) Ovarian lobules were surgically harvested from oocytes-positive female Xenopus laevis (NASCO, Fort Atkinson, WI) according to an animal use protocol approved by the Texas A&M Health Sciences Center Institutional Animals Care and Use Committee. The Texas A&M Health Sciences Center Research Facility is registered as an animal research facility with the United States Department of Agriculture and is fully accredited by the American Association for Accreditation of Laboratory Animal Care (AAALAC). For oocytes defolliculation, ovarian lobes were treated with 3 mg/ml collagenase type 2 (Worthington Biomedical, Lakewood, NJ) in Ca + 2-free buffer (85 mM NaCl, 2.5 mM KCl, 1 mM MgCl2, 5 mM HEPES, pH 7.6). Collagenase treatment was allowed to proceed for 3 hours at room temperature with gentle shaking then oocytes were washed several times with buffer to remove collagenase then with ND96-gentamicine buffer. Healthy Stage V and VI oocytes were visually selected and maintained at 18 °C in modified ND96-gentamicine buffer (96 mM NaCl, 2 mM KCl, 1.8 mM CaCl2, 1 mM MgCl2, 5 mM HEPES, 50 µg/ml gentamicin, pH 7.6). Oocytes were injected with 50–100 ng of the desired nAChR subunits cRNA mix at ratios of 8α:1β or 1α:8β to express nAChRs with subunit stoichiometries of 3α:2β (low agonist sensitivity) or 2α:3β (high agonist sensitivity), respectively.
(§2) Oocytes were continuously perfused with recording buffer (100 mM NaCl, 2 mM KCl, 1 mM CaCl2, 0.8 mM MgCl2, 1 mM EGTA, 10 mM Hepes, pH 7.5) except during periods of drug applications.

Assay [4] addresses T5, (α4G67E)3(β2)2 nAChR (Homo sapiens, UniProt P43681, G67E). Also noted: method as in PMID 28446611. Conditions: 10 µM ACh + 1 µM dFBr vs 10 µM ACh alone; data reported previously ref 29; cited from earlier work.
The target in assay [5] is T2, (α4H142L)3(β2)2 nAChR. The assay can be described thus: Two-electrode voltage-clamp of ACh-induced currents in Xenopus oocytes. The format is cell-based. Conditions: 10 µM ACh + 1 µM LY2087101 vs 10 µM ACh alone. The procedure:
(§3) For amino acid substitutions within the α4 nAChR subunit, point mutations were introduced into pSP64ployA plasmid with cDNA encoding for human α4 nAChR subunit with mutagenic primer pairs using the Quick Change II Site-Directed Mutagenesis Kit (Agilent Technologies) then confirmed by DNA sequencing (GENEWIZ, LLC, South Plainfield, NJ). cRNA transcripts suitable for oocyte expression were prepared in vitro from linearized plasmids [α3 (BamH1), α4 (AseI), β2 (PvuII), β4 (XhoI)] using mMESSAGE mMACHINE high yield capped RNA transcription kits (Ambion) and purified on NucAway Spin column (Invitrogen). cRNA concentration was determined by spectroscopy (Concentration (ug/ul) = Abs260 * 40), aliquoted and stored at −80 °C until used.
as §1
(§4) Two-electrode voltage clamp recording of ACh-induced responses of Xenopus oocytes were performed 24–72 h following injection of nAChR subunit cRNA mix to ensure adequate nAChRs expression. Xenopus oocytes were placed in a custom-made recording chamber that is connected to eight channels automated perfusion system (Warner Instruments) and voltage-clamped at −50 mV using Oocyte Clamp OC-725B (Warner Instruments). Oocytes were continuously perfused with recording buffer (100 mM NaCl, 2 mM KCl, 1 mM CaCl2, 0.8 mM MgCl2, 1 mM EGTA, 10 mM Hepes, pH 7.5) except during periods of drug applications. […] Currents were digitized using Digidata 1550 A (Axon Instruments) and peak currents were quantified using pCLAMP 10 (Axon Instruments) then normalized and analyzed using Excels 2010 (Microsoft corporation) and SigmaPlot 11.0 (Systat Software).
(Two-electrode voltage clamp is typically applied to oocytes expressing channels or transporters.)

Assay [6] has as its target T5, (α4G67E)3(β2)2 nAChR. The assay is described as above. The format is cell-based. The conditions noted are these: 10 µM ACh + 1 µM LY2087101 vs 10 µM ACh alone. As for the experimental part: as §3, §1, §4
Assay [7] concerns the target T3, (α4L63I)3(β2)2 nAChR. The description is as above. The conditions noted are these: 10 µM ACh + 1 µM LY2087101 vs 10 µM ACh alone. The class given is cell-based. As for the experimental part:
as §3, §1, §4

The next assay has as its target (α4R65H)3(β2)2 nAChR (Homo sapiens, UniProt P43681, R65H). Described as above. The class given is cell-based. The conditions noted are these: 10 µM ACh + 1 µM LY2087101 vs 10 µM ACh alone. As for the experimental part: as §3, §1, §4
The target in the next assay is (α4E92I)3(β2)2 nAChR (Homo sapiens, UniProt P43681, E92I). The assay is described as above. The format is cell-based. Conditions: 10 µM ACh + 1 µM LY2087101 vs 10 µM ACh alone. As for the experimental part:
as §3, §1, §4

The target of the next assay is T6, (α4)2(β2)3 nAChR (Homo sapiens, UniProt P17787+P43681).
T6 construct: expressed in transfected cells; host or cells: Xenopus laevis oocytes injected with cRNA
Described as above. The format is cell-based. The procedure: To begin to characterize LY2087101 interaction with the heteropentameric α4β2 nAChRs, we examined the selectivity of LY2087101 for the two α4β2 nAChR isoforms; high-agonist sensitivity (α4)2(β2)3 and low-agonist sensitivity (α4)3(β2)2 nAChRs. Xenopus oocytes were injected with α4 and β2 subunits RNAs at ratios 8:1 and 1:8 to favor expression of (α4)3(β2)2 and (α4)2(β2)3 nAChRs, respectively.
as §1, §2

“And” between values parts separate entries of the source, which are not always exact repeats. Identical values can stand only once. Like-named read-outs stand apart in the source and are kept apart here. Marks after values point to notes of the source that are not given here.

T6 sequence (P43681 29-627 limits assumed): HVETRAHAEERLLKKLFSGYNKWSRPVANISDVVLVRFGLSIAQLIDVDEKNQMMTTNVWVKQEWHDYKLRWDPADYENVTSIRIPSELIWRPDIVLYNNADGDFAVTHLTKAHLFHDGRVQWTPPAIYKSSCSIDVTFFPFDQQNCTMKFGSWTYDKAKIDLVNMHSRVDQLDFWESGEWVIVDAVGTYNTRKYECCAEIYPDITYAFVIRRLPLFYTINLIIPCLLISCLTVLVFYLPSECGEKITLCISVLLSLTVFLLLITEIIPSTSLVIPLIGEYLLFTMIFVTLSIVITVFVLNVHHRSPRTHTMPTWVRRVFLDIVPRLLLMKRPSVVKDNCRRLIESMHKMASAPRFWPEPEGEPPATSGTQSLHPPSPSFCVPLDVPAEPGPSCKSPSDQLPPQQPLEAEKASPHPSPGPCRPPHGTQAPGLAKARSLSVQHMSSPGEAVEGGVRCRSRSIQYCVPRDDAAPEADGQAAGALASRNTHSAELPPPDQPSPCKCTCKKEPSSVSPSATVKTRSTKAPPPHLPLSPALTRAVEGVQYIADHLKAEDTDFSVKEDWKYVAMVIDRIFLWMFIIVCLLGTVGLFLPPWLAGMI
T6 sequence (P17787 26-502): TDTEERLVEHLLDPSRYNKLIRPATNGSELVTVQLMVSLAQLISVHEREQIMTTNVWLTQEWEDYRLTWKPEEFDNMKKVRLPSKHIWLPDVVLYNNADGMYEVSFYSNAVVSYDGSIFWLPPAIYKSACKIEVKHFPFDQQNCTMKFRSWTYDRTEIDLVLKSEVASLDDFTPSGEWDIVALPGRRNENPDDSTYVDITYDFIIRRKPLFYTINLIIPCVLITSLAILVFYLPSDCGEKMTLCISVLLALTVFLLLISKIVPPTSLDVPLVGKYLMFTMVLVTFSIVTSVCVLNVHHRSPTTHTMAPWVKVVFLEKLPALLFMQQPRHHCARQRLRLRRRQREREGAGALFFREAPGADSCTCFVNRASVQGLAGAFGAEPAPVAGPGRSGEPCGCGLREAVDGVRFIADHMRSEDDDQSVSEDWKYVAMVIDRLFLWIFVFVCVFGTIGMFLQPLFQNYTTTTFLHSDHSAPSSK
T2 sequence (P43681 29-627 H142L limits assumed): as the sequence (P43681 29-627 limits assumed) above, with H114L counted along it
T2 sequence (P17787 26-502 partner): as the sequence (P17787 26-502) above
T1 sequence (P43681 29-627 limits assumed): as the sequence (P43681 29-627 limits assumed) above
T1 sequence (P17787 26-502): as the sequence (P17787 26-502) above
T3 sequence (P43681 29-627 L63I limits assumed): as the sequence (P43681 29-627 limits assumed) above, with L35I counted along it
T3 sequence (P17787 26-502 partner): as the sequence (P17787 26-502) above
T5 sequence (P43681 29-627 G67E limits assumed): as the sequence (P43681 29-627 limits assumed) above, with G39E counted along it
T5 sequence (P17787 26-502 partner): as the sequence (P17787 26-502) above
Sequence of (α4H94N)3(β2)2 nAChR (P43681 29-627 H94N limits assumed): as the sequence (P43681 29-627 limits assumed) above, with H66N counted along it
Sequence of (α4H94N)3(β2)2 nAChR (P17787 26-502 partner): as the sequence (P17787 26-502) above
Sequence of (α4R65H)3(β2)2 nAChR (P43681 29-627 R65H limits assumed): as the sequence (P43681 29-627 limits assumed) above, with R37H counted along it
Sequence of (α4R65H)3(β2)2 nAChR (P17787 26-502 partner): as the sequence (P17787 26-502) above
Sequence of (α4E92I)3(β2)2 nAChR (P43681 29-627 E92I limits assumed): as the sequence (P43681 29-627 limits assumed) above, with E64I counted along it
Sequence of (α4E92I)3(β2)2 nAChR (P17787 26-502 partner): as the sequence (P17787 26-502) above
T4 sequence (P32297 32-505): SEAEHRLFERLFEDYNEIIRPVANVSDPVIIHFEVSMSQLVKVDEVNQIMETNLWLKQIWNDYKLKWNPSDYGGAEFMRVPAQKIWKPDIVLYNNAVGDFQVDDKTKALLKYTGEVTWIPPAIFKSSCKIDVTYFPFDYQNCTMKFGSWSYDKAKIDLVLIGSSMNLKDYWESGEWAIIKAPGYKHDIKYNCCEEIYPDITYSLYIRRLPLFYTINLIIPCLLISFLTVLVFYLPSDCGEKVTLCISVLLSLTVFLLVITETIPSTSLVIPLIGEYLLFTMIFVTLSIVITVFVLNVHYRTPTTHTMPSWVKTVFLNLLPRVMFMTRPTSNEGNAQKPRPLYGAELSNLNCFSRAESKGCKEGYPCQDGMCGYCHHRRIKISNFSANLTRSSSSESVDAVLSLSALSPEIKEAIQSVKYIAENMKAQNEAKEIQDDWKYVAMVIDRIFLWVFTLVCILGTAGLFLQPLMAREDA
T4 sequence (P30926 22-498): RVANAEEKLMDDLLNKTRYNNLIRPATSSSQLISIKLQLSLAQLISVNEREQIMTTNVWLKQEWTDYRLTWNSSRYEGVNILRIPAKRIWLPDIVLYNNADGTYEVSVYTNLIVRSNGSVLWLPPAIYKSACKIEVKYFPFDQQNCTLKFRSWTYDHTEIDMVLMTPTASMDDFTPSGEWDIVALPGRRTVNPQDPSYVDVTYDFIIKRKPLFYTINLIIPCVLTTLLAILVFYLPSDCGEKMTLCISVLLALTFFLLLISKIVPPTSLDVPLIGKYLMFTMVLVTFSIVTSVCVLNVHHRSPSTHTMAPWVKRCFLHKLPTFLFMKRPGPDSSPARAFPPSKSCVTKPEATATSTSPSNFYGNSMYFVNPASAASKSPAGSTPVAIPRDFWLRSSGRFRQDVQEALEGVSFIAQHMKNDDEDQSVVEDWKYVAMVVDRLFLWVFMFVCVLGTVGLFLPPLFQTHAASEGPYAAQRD

As for `C=CC(C)(C)c1[nH]c2cc(Br)ccc2c1CCNC` [dFBr], the compulsive-like behavior entry in assay [1] is on record as “attenuate compulsive-like behavior”. In addition, the “increase in ACh efficacy (Imax) by dFBr” value at (α4)3(β2)2 nAChR (ACh concentration-response curve) is recorded as ~ 4 fold. Further, on (α4)3(β2)2 nAChR, the dFBr maximal potentiation is on record as 400%. The “R, potentiation ratio (PR)” value is 5.8 ± 0.5^a on (α4H94N)3(β2)2 nAChR, 8.1 ± 0.6^a at (α4H142L)3(β2)2 nAChR [2], 3.5 ± 0.3^a on (α4L63I)3(β2)2 nAChR [3] and 4.1 ± 0.2^a on (α4G67E)3(β2)2 nAChR [4]. For the same molecule, the “potentiation of ACh responses” value at α3β4 nAChR was “did not potentiate”.

For `Cc1nc(Nc2ccc(F)cc2)sc1C(=O)c1ccsc1` [LY2087101, [2-[(4-Fluorophenyl)amino]-4-methyl-5-thiazolyl]-3-thienylmethanone], the “R, potentiation ratio (PR)” value amounted to 8.7 ± 0.5 on (α4H142L)3(β2)2 nAChR [5]; 5.2 ± 0.7 on (α4G67E)3(β2)2 nAChR [6]; 4.3 ± 0.4 at (α4L63I)3(β2)2 nAChR [7]; 7.4 ± 1.3 on (α4R65H)3(β2)2 nAChR; 10.9 ± 2.6 on (α4E92I)3(β2)2 nAChR. In addition, the “ACh Imax in the presence of 1 µM LY2087101” value on (α4)2(β2)3 nAChR (ACh concentration-response curve, normalized to 1 mM ACh alone) was 189 ± 2% and ~190%. Moreover, the EC50 on (α4)2(β2)3 nAChR (co-applied with 10 µM ACh, HS WT, read-out: LY2087101 potentiation EC50) came out at 1.9 ± 0.04 µM.

By EC50 is commonly meant the concentration at which the effect is half-maximal.
